Data: article PMC9241976 (Chemical Science, 2022)

System: MCF-7 cells
Experiment: Sulforhodamine B assay, cytostatic and cytotoxic activity
Format: cell-based, human
Settings: LC50 versus GI50 of the same compound

Substance: polytheonamide B [Compound 5]
- difference between GI50 and LC50: 19 fold
